Nine compounds from US8487121B2, “Chromane derivatives as TRPV3 modulators” (Glenmark Pharmaceuticals S.A., priority 2007, dated 2013) can be followed below.

In the assay the target is T1, Human TRPV3 (Homo sapiens, UniProt Q8NET8).
T1 construct: expressed in transfected cells; host or cells: CHO cells (G-418 selected)
T1 sequence (Q8NET8 1-790): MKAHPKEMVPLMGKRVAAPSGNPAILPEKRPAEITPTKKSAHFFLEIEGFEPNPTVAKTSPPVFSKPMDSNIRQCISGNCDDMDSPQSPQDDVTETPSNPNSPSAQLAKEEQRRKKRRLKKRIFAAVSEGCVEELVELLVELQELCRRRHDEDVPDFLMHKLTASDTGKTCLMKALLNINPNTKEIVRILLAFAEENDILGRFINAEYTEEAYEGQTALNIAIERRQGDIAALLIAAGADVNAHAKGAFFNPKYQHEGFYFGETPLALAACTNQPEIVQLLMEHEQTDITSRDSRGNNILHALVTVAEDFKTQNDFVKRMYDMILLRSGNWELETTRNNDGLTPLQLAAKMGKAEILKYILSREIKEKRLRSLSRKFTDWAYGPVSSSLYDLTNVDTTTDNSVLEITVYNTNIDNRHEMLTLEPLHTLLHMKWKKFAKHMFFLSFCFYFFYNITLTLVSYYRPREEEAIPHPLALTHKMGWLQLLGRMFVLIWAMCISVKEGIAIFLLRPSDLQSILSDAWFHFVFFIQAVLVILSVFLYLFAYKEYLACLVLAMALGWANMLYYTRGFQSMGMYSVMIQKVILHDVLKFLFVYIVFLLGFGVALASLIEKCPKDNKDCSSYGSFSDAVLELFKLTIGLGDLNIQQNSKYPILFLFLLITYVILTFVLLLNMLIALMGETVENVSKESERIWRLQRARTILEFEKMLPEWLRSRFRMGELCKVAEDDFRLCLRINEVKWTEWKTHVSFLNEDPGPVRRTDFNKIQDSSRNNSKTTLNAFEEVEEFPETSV
In words: 45Calcium uptake assay: inhibition of 2-APB induced cellular uptake of radioactive calcium. The assay is classed as cell-based. Conditions: human TRPV3 expressing CHO cells, 2-APB 500 μM; for inhibition at 1 µM: 1.0 μM compound, read-out: Percentage inhibition at 1.0 μM; for inhibition at 10 µM: 10.0 μM compound, read-out: Percentage inhibition at 10.0 μM. An outline of the steps:
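CHO cells stably expressing human TRPV3 (~50,000/well) were preincubated with compounds for 10 min in medium containing 0.1% BSA, 1.8 mM CaCl2 and 0.5% DMSO. Then 500 μM 2-APB and 5 μCi/ml 45Ca2+ were added for 4 min. Lysate radioactivity was expressed as % of maximal uninhibited response, and IC50 came from nonlinear regression, alongside % inhibition at 1.0 and 10.0 μM.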

For orientation: inhibition means the change of the read-out against control, counted positive when it falls. For the compound `COc1cccc(CCCC(=O)N[C@H]2CC3(CCC3)Oc3c(Cl)cccc32)c1OC1CCCC1` [Example 96, (4S)—N-(8-Chloro-3,4-dihydrospiro[chromene-2,1′-cyclobutan]-4-yl)-4-(2-cyclopentyloxy-3-methoxyphenyl)butanamide], the inhibition at 1 µM worked out at 44.4% and the inhibition at 10 µM was 80.9%.
As a reminder, the IC50 is the concentration at which inhibition is half-maximal. Regarding `COc1cccc(CCCC(=O)NC2CC3(CCC3)Oc3c(Cl)cc(F)cc32)c1OC1CCCC1` (centres unmarked) [Example 97, N-(8-Chloro-6-fluoro-3,4-dihydrospiro[chromene-2,1′-cyclobutan]-4-yl)-4-(2-cyclopentyloxy-3-methoxyphenyl)butanamide], the inhibition at 1 µM came to 60%, the inhibition at 10 µM was 90.3% and the IC50 was in the range of 1000 to 2000 nM.
Take `COc1cccc(CCCC(=O)NC2CC3(CCC3)Oc3c(Cl)cc(Cl)cc32)c1OC1CCCC1` (centres unmarked) [Example 98, N-(6,8-Dichloro-3,4-dihydrospiro[chromene-2,1′-cyclobutan]-4-yl)-4-(2-cyclopentyloxy-3-methoxyphenyl)butanamide]: the inhibition at 1 µM is 36.9% and the inhibition at 10 µM was determined as 69.5%.
For `COc1cccc(CCCC(=O)NC2CC3(CCC3)Oc3cc(OCc4ccccc4)ccc32)c1OC1CCCC1` (centres unmarked) [Example 99, N-(7-Benzyloxy-3,4-dihydrospiro[chromene-2,1′-cyclobutan]-4-yl)-4-(2-cyclopentyloxy-3-methoxyphenyl)butanamide], in that order: 19.9% and 19.6%.
For the compound `COc1cccc(CCCC(=O)NC2CC3(CCC3)Oc3cc(O)ccc32)c1OC1CCCC1` (centres unmarked) [Example 100, N-(7-Hydroxy-3,4-dihydrospiro[chromene-2,1′-cyclobutan]-4-yl)-4-(2-cyclopentyloxy-3-methoxyphenyl)butanamide], the inhibition at 1 µM is 19.4% and the inhibition at 10 µM turned out to be 87%.
On to `COc1ccc(C(=O)CCC(=O)NC2CC3(CCC3)Oc3ccc(Cl)cc32)c2ccccc12` (centres unmarked) [Example 101, N-(6-Chloro-3,4-dihydrospiro[chromene-2,1′-cyclobutan]-4-yl)-4-oxo-4-(4-methoxy-naphthyl)butanamide], for which the inhibition at 1 µM was found to be 26.5% and the inhibition at 10 µM is 63.2%.
As to `COc1ccc(C(O)CCC(=O)NC2CC3(CCC3)Oc3ccc(Cl)cc32)c2ccccc12` (centres unmarked) [Example 102, N-(6-Chloro-3,4-dihydrospiro[chromene-2,1′-cyclobutan]-4-yl)-4-hydroxy-4-(4-methoxynaphthyl)butanamide], the inhibition at 1 µM was 26.6% and the inhibition at 10 µM is 42.8%.
As to `COc1cccc(CCCC(=O)NC2CC(C)(C)Oc3ccc(Cl)cc32)c1OC1CCCC1` (centres unmarked) [Example 103, N-(6-Chloro-2,2-dimethyl-3,4-dihydro-2H-chromen-4-yl)-4-(2-cyclopentyloxy-3-methoxy)phenylbutanamide], the inhibition at 1 µM was 69.4%, the inhibition at 10 µM amounted to 96.4% and the IC50 was in the range of 500 to 1000 nM.
For the compound `COc1cccc(CCCC(=O)NC2CCSc3ccc(Cl)cc32)c1OC1CCCC1` (centres unmarked) [Example 104, N-(6-chloro-3,4-dihydro-2H-thiochromen-4-yl)-4-(2-cyclopentyloxy-3-methoxyphenyl)-butanamide], the inhibition at 1 µM was 51.3% and the inhibition at 10 µM came out at 92.5%.
